According to patent US20260021061A1, “ARIADNE AND ANALOGS FOR THE TREATMENT OF NEUROLOGICAL AND NEUROMUSCLAR DISORDERS” (priority 2022, published 2026):

Legend:
rats = settings: 10 mg/kg, s.c. or i.p.; absence of stimulant-like effects; cited from earlier work
Cyclooxygenase COX-1 = biological target: T1, Cyclooxygenase COX-1 (Homo sapiens, UniProt P23219); assay: SafetyScreen44 116030; type: biochemical; settings: 10 μM; Arachidonic acid; recombinant
T1 construct: Eurofins-Panlabs (contract screen) 116030
T1 sequence (P23219 24-599): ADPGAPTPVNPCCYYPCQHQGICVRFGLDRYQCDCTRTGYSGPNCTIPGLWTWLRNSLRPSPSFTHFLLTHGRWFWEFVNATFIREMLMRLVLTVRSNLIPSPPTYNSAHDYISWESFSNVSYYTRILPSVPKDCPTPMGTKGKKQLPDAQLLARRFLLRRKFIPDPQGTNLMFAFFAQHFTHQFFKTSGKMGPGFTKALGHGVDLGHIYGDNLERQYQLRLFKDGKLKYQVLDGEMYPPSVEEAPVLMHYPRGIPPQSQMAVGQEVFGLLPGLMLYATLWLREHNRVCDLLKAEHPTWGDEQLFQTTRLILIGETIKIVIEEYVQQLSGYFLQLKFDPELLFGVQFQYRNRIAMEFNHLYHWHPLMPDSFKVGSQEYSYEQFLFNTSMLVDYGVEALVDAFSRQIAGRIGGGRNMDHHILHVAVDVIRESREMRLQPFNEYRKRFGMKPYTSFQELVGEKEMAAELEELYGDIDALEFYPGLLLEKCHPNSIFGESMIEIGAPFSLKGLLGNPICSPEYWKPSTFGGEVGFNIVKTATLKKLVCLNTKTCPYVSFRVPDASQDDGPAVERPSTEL
Experimental: (§1) A broad screen of 44 molecular targets (SafetyScreen44, Eurofins-Panlabs) for Ariadne were performed, which includes G protein-coupled receptors, steroid nuclear receptors, ion channels, neurotransmitter transporters, and metabolic and signaling enzymes. Only two molecular targets, 5-HT2A and 5-HT2B receptors, emerged above the positive hit threshold, defined as 50% displacement of standard radioligands by 10 uM concentration of Ariadne (FIG. 1b, and Table 1).
(§2) For species, “H”=human, “R”=rat. Test compound screened at all targets at concentration of 10 μM.

Cannabinoid CB1 = biological target: T2, Cannabinoid CB1 (Homo sapiens, UniProt P21554); assay: SafetyScreen44 217050; type: binding; settings: 10 μM; [3H]SR141716A; recombinant
T2 construct: Eurofins-Panlabs (contract screen) 217050
T2 sequence (P21554 whole entry): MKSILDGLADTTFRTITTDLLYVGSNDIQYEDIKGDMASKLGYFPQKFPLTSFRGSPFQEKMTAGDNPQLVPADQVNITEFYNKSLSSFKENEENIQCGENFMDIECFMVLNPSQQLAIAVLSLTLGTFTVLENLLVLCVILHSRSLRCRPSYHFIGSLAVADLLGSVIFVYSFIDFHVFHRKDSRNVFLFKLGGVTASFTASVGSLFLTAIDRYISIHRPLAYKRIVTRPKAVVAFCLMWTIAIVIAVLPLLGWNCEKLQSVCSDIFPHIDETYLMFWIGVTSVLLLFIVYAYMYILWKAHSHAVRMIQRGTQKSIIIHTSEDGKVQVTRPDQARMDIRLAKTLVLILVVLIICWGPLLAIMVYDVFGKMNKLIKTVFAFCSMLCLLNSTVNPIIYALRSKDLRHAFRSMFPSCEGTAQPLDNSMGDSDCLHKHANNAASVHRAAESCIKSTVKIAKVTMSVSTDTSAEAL
Experimental: as §1, §2

Histamine H2 = biological target: T3, Histamine H2 (Homo sapiens, UniProt P25021); assay: SafetyScreen44 239710; type: binding; settings: 10 μM; [125I]Aminopotentidine; recombinant
T3 construct: purchased Eurofins-Panlabs (contract screen SafetyScreen44) assay ID 239710
T3 sequence (P25021 whole entry): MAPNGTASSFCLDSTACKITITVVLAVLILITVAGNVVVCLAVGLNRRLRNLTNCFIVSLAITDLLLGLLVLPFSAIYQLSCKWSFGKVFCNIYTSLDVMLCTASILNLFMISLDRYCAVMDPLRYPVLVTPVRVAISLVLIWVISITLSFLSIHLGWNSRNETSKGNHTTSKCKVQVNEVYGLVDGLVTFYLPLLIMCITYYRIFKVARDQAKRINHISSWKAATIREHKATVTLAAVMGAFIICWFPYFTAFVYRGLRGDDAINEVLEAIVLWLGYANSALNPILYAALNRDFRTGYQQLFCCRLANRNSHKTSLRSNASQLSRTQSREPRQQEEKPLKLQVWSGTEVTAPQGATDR
Experimental: as §1, §2

Opiate kappa (OP2, KOP) = biological target: T4, Opiate kappa (OP2, KOP) (Homo sapiens, UniProt P41145); assay: SafetyScreen44 260210; type: binding; settings: 10 μM; [3H]Diprenorphine; recombinant
T4 construct: purchased Eurofins-Panlabs (contract screen SafetyScreen44) assay ID 260210
T4 sequence (P41145 whole entry): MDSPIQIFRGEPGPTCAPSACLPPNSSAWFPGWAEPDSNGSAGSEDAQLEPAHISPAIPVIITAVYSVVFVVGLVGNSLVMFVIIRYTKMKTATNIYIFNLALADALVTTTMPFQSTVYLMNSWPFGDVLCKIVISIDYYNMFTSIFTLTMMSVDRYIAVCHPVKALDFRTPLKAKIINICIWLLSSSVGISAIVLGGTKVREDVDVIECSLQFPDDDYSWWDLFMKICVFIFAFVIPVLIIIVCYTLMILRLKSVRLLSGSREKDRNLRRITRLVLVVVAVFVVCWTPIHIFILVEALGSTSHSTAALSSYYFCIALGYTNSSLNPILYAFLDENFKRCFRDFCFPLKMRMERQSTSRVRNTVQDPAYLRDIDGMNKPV
Experimental: as §1, §2

Compound	avoidance behavior (rats)	% Response (Cyclooxygenase COX-1) [%]	% Response (Cannabinoid CB1) [%]	% Response (Histamine H2) [%]	% Response (Opiate kappa (OP2, KOP)) [%]
CC[C@@H](N)Cc1cc(OC)c(C)cc1OC [(R)-Ariadne]	improved avoidance behavior	–	–	–	–
CCC(N)Cc1cc(OC)c(C)cc1OC (racemic) [Compound 32, 1-(2,5-dimethoxy-4-methylphenyl)butan-2-amine]	–	−31	1	21	3
